# From patent US20230278981A1, “DICHLOROPHENOL HSD17B13 INHIBITORS AND USES THEREOF” (INIPHARM, INC., priority 2020, published 2023)
# Counter-ions that a name gives are not always drawn.
# Target: HSD17B13 (Homo sapiens (Human), UniProt Q7Z5P4)
# Test: LC/MS estrone detection assay: conversion of estradiol to estrone by HSD17B13
# Assay type: biochemical
# Details: 4 μM estradiol, 6 mM NAD+, 30 nM HSD17B13 enzyme (E. coli expressed His-tagged), 2 hours at 26.5° C.
# Summary of the method: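 His-tagged E. coli-expressed HSD17B13 (30 nM) with 4 μM estradiol and 6 mM NAD+ in 1 M potassium phosphate pH 7.4, 0.5% DMSO, 2 h at 26.5° C. Estrone and estradiol quantified by LC-MS/MS after MeCN quench with D4-estrone internal standard; activity as % of uninhibited enzyme, IC50 by four-parameter fit, duplicates.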
# HSD17B13, sequence (Q7Z5P4 20-300): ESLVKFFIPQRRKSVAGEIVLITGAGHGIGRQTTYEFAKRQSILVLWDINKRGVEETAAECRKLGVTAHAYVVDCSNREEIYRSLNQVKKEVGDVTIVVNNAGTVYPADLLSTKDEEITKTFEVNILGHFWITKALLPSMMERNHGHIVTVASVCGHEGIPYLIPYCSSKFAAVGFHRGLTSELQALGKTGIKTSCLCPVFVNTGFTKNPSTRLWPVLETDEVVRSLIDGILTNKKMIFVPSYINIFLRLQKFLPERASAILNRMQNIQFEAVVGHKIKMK
row,SMILES,IC50 [nM]
1,"Cc1nc2c(F)ccc(NC(=O)c3cc(Cl)c(O)c(Cl)n3)c2c(=O)n1Cc1ccccc1C(F)(F)F [Example 159, 4,6-dichloro-N-(8-fluoro-2-methyl-4-oxo-3-(2-(trifluoromethyl)benzyl)-3,4-dihydroquinazolin-5-yl)-5-hydroxypicolinamide]",100 to 500
2,"Cc1nc2c(F)ccc(NC(=O)c3cc(Cl)c(O)c(Cl)n3)c2c(=O)n1Cc1ccccc1OC(F)(F)F [Example 150, 4,6-dichloro-N-(8-fluoro-2-methyl-4-oxo-3-(2-(trifluoromethoxy)benzyl)-3,4-dihydroquinazolin-5-yl)-5-hydroxypicolinamide]",≤ 100
3,"Cc1ccc2ncn(Cc3ccccc3OC(F)(F)F)c(=O)c2c1NC(=O)c1cc(Cl)c(O)c(Cl)n1 [Example 131, 4,6-dichloro-5-hydroxy-N-(6-methyl-4-oxo-3-{[2-(trifluoromethoxy)phenyl]methyl}-3,4-dihydroquinazolin-5-yl)pyridine-2-carboxamide]",100 to 500
4,"Cc1ccc(NC(=O)c2cc(Cl)c(O)c(Cl)n2)c2c(=O)n(Cc3ccccc3OC(F)(F)F)cnc12 [Example 91, 4,6-dichloro-5-hydroxy-N-(8-methyl-4-oxo-3-(2-(trifluoromethoxy)benzyl)-3,4-dihydroquinazolin-5-yl)picolinamide]",100 to 500
5,"O=C(Nc1cccc2nc(C(F)(F)F)n(C3CC3c3ccccc3)c(=O)c12)c1cc(Cl)c(O)c(Cl)n1 (centres unmarked) [Example 101, 4,6-dichloro-5-hydroxy-N-(4-oxo-3-(2-phenylcyclopropyl)-2-(trifluoromethyl)-3,4-dihydroquinazolin-5-yl)picolinamide]",1000 to 10000
6,"O=C(Nc1ccc(F)c2ncn(Cc3ccccc3OC(F)(F)F)c(=O)c12)c1cc(Cl)c(O)c(Cl)n1 [Example 133, 4,6-dichloro-N-(8-fluoro-4-oxo-3-{[2-(trifluoromethoxy)phenyl]methyl}-3,4-dihydroquinazolin-5-yl)-5-hydroxypyridine-2-carboxamide]",100 to 500
7,"[2H]C([2H])([2H])c1nc2c(C)ccc(NC(=O)c3cc(Cl)c(O)c(Cl)n3)c2c(=O)n1Cc1ccccc1C(F)(F)F [Example 180, 4,6-dichloro-5-hydroxy-N-(8-methyl-2-(methyl-d3)-4-oxo-3-(2-(trifluoromethyl)benzyl)-3,4-dihydroquinazolin-5-yl)picolinamide]",100 to 500
8,"O=C(Nc1cc(Cl)sc1C(=O)NCc1ccccc1OC(F)(F)F)c1cc(Cl)c(O)c(Cl)c1 [Example 37, 5-chloro-3-(3,5-dichloro-4-hydroxybenzamido)-N-(2-(trifluoromethoxy)benzyl) thiophene-2-carboxamide]",≤ 100
9,"[2H]C([2H])([2H])c1nc2c(C)ccc(NC(=O)c3cc(Cl)c(O)c(Cl)c3)c2c(=O)n1Cc1ccccc1C(F)(F)F [Example 179, 3,5-dichloro-4-hydroxy-N-(8-methyl-2-(methyl-d3)-4-oxo-3-(2-(trifluoromethyl)benzyl)-3,4-dihydroquinazolin-5-yl)benzamide]",≤ 100
10,"O=C(Nc1scnc1C(=O)NCc1ccccc1F)c1cc(Cl)c(O)c(Cl)c1 [Example 33, 5-(3,5-dichloro-4-hydroxybenzamido)-N-(2-fluorobenzyl)thiazole-4-carboxamide]",100 to 500
11,"Cc1ccc(NC(=O)c2cc(Cl)c(O)c(Cl)n2)c2c(=O)n(Cc3ccccc3OC(F)(F)F)c(C(F)F)nc12 [Example 160, 4,6-dichloro-N-(2-(difluoromethyl)-8-methyl-4-oxo-3-(2-(trifluoromethoxy)benzyl)-3,4-dihydroquinazolin-5-yl)-5-hydroxypicolinamide]",≤ 100
12,"Cc1nc2c(F)ccc(NC(=O)c3cc(Cl)c(O)c(Cl)n3)c2c(=O)n1Cc1nn(C)c2ccccc12 [Example 194, 4,6-dichloro-N-(8-fluoro-2-methyl-3-((1-methyl-1H-indazol-3-yl)methyl)-4-oxo-3,4-dihydroquinazolin-5-yl)-5-hydroxypicolinamide]",100 to 500
13,"O=C(Nc1ccc(Cl)c2ncn(Cc3ccccc3OC(F)(F)F)c(=O)c12)c1cc(Cl)c(O)c(Cl)n1 [Example 90, 4,6-dichloro-N-(8-chloro-4-oxo-3-(2-(trifluoromethoxy)benzyl)-3,4-dihydroquinazolin-5-yl)-5-hydroxypicolinamide]",100 to 500
14,"Cc1ccc(NC(=O)c2cc(Cl)c(O)c(Cl)c2)c2c(=O)n(Cc3cccnc3C(F)(F)F)c(C)nc12 [Example 142, 3,5-dichloro-N-(2,8-dimethyl-4-oxo-3-((2-(trifluoromethyl)pyridin-3-yl)methyl)-3,4-dihydroquinazolin-5-yl)-4-hydroxybenzamide]",100 to 500
15,"Cc1ccc(NC(=O)c2cc(Cl)c(O)c(Cl)c2)c2c(=O)n(Cc3ncccc3C(F)(F)F)c(C)nc12 [Example 146, 3,5-dichloro-N-(2,8-dimethyl-4-oxo-3-((3-(trifluoromethyl)pyridin-2-yl)methyl)-3,4-dihydroquinazolin-5-yl)-4-hydroxybenzamide]",≤ 100

# The next lines start with the values.
row,IC50 [nM],SMILES
1,100 to 500,"CC(C)(C)n1ccc(Cn2cnc3cccc(NC(=O)c4cc(Cl)c(O)c(Cl)n4)c3c2=O)n1 [Example 62, N-(3-((1-(tert-butyl)-1H-pyrazol-3-yl)methyl)-4-oxo-3,4-dihydroquinazolin-5-yl)-4,6-dichloro-5-hydroxypicolinamide]"
2,≤ 100,"Cc1ccc(NC(=O)c2cc(Cl)c(O)c(Cl)c2)c2c(=O)n(Cc3ccccc3OC(F)(F)F)c(C)nc12 [Example 89, 3,5-dichloro-N-(2,8-dimethyl-4-oxo-3-(2-(trifluoromethoxy)benzyl)-3,4-dihydroquinazolin-5-yl)-4-hydroxybenzamide]"
3,> 10000,"NS(=O)(=O)c1ccccc1Cn1cnc2cccc(NC(=O)c3cc(Cl)c(O)c(Cl)c3)c2c1=O [Example 106, 3,5-dichloro-4-hydroxy-N-(4-oxo-3-(2-sulfamoylbenzyl)-3,4-dihydroquinazolin-5-yl)benzamide]"
4,500 to 1000,"O=C(Nc1cccc2ncn(Cc3cccnc3)c(=O)c12)c1cc(Cl)c(O)c(Cl)c1 [Example 80, 3,5-dichloro-4-hydroxy-N-(4-oxo-3-(pyridin-3-ylmethyl)-3,4-dihydroquinazolin-5-yl)benzamide]"
5,≤ 100,"O=C(Nc1cccc2ncn(Cc3ccccc3C(F)(F)F)c(=O)c12)c1cc(Cl)c(O)c(Cl)c1 [Example 18, 3,5-dichloro-4-hydroxy-N-(4-oxo-3-(2-(trifluoromethyl)benzyl)-3,4-dihydroquinazolin-5-yl)benzamide]"
6,100 to 500,"O=C(Nc1cccc2ncn(Cc3ncccc3Cl)c(=O)c12)c1cc(Cl)c(O)c(Cl)n1 [Example 148, 4,6-dichloro-N-(3-((3-chloropyridin-2-yl)methyl)-4-oxo-3,4-dihydroquinazolin-5-yl)-5-hydroxypicolinamide]"
7,100 to 500,"O=C(Nc1cccc2ncn(Cc3ccc(OC(F)(F)F)cc3)c(=O)c12)c1cc(Cl)c(O)c(Cl)n1 [Example 50, 4,6-dichloro-5-hydroxy-N-(4-oxo-3-(4-(trifluoromethoxy)benzyl)-3,4-dihydroquinazolin-5-yl)picolinamide]"
8,≤ 100,"O=C(Nc1cccc2ncn(Cc3ccccc3C(F)(F)F)c(=O)c12)c1cc(Cl)c(O)c(Cl)n1 [Example 43, 4,6-dichloro-5-hydroxy-N-(4-oxo-3-(2-(trifluoromethyl)benzyl)-3,4-dihydroquinazolin-5-yl)picolinamide]"
9,1000 to 10000,"O=C(Nc1cccc2ncn([C@@H]3C[C@H]3c3ccccc3)c(=O)c12)c1cc(Cl)c(O)c(Cl)c1 (racemic) [Example 102, Rac-3,5-dichloro-4-hydroxy-N-(4-oxo-3-((1R,2S)-2-phenylcyclopropyl)-3,4-dihydroquinazolin-5-yl)benzamide]"
10,100 to 500,"O=C(Nc1cccc2ncn(Cc3ncccc3F)c(=O)c12)c1cc(Cl)c(O)c(Cl)n1 [Example 140, 4,6-dichloro-N-(3-((3-fluoropyridin-2-yl)methyl)-4-oxo-3,4-dihydroquinazolin-5-yl)-5-hydroxypicolinamide]"
11,1000 to 10000,"O=C(Nc1cccc2ncn([C@H]3C[C@@H]3c3ccccc3)c(=O)c12)c1cc(Cl)c(O)c(Cl)n1 [Example 109, 4,6-dichloro-5-hydroxy-N-(4-oxo-3-((1S,2R)-2-phenylcyclopropyl)-3,4-dihydroquinazolin-5-yl)picolinamide]"
12,100 to 500,"O=C(Nc1cccc2ncn(Cc3ncccc3F)c(=O)c12)c1cc(Cl)c(O)c(Cl)c1 [Example 130, 3,5-dichloro-N-{3-[(3-fluoropyridin-2-yl)methyl]-4-oxo-3,4-dihydroquinazolin-5-yl}-4-hydroxybenzamide]"
13,100 to 500,"N#Cc1cccc(Cn2cnc3cccc(NC(=O)c4cc(Cl)c(O)c(Cl)c4)c3c2=O)c1 [Example 48, 3,5-dichloro-N-(3-(3-cyanobenzyl)-4-oxo-3,4-dihydroquinazolin-5-yl)-4-hydroxybenzamide]"
14,500 to 1000,"O=C(Nc1cccc2ncn([C@@H]3C[C@H]3c3ccccc3)c(=O)c12)c1cc(Cl)c(O)c(Cl)n1 [Example 108, 4,6-dichloro-5-hydroxy-N-(4-oxo-3-((1R,2S)-2-phenylcyclopropyl)-3,4-dihydroquinazolin-5-yl)picolinamide TFA Salt]"
15,500 to 1000,"CS(=O)(=O)c1cccc(Cn2cnc3cccc(NC(=O)c4cc(Cl)c(O)c(Cl)c4)c3c2=O)c1 [Example 60, 3,5-dichloro-4-hydroxy-N-(3-(3-(methylsulfonyl)benzyl)-4-oxo-3,4-dihydroquinazolin-5-yl)benzamide.]"
16,100 to 500,"O=C(Nc1cccc2ncn(Cc3cnn4ccccc34)c(=O)c12)c1cc(Cl)c(O)c(Cl)c1 [Example 100, 3,5-dichloro-4-hydroxy-N-(4-oxo-3-(pyrazolo[1,5-a]pyridin-3-ylmethyl)-3,4-dihydroquinazolin-5-yl)benzamide]"
17,100 to 500,"O=C(Nc1ccnc2ncn(Cc3ccccc3OC(F)(F)F)c(=O)c12)c1cc(Cl)c(O)c(Cl)c1 [Example 92, 3,5-dichloro-4-hydroxy-N-(4-oxo-3-(2-(trifluoromethoxy)benzyl)-3,4-dihydropyrido[2,3-d]pyrimidin-5-yl)benzamide]"
